Data as given in ChEMBL document CHEMBL4145540 (Eur J Med Chem, 2018).
The source made the active and inactive calls. No cut-off for these calls is given here.

Columns and labels:
[1] = tested on: A549; experiment: Cell cycle arrest in human A549 cells assessed as accumulation at S phase at 160 nM after 20 hrs by propidium iodide staining based flow cytometry (reference value: 16 +/- 1%); assay type: functional
[2] = tested on: HL-60; experiment: Antiproliferative activity against human HL60 cells after 2 days by MTT assay; assay type: functional, cell-based; conditions: HL-60, 48 h
[3] = tested on: HEK293; experiment: Antiproliferative activity against HEK293 cells after 2 days by MTT assay; assay type: cell-based; conditions: Homo sapiens, HEK293, 48 h
[4] = tested on: HT-29; experiment: Antiproliferative activity against human HT-29 cells after 2 days by MTT assay; assay type: functional, cell-based; conditions: HT-29, 48 h
[5] = tested on: A549; experiment: Cell cycle arrest in human A549 cells assessed as accumulation at G2/M phase at 160 nM after 20 hrs by propidium iodide staining based flow cytometry (reference value: 11 +/- 1%); assay type: functional
[6] = tested on: MDA-MB-231; experiment: Antiproliferative activity against human MDA-MB-231 cells after 3 days by coulter counting method; assay type: functional, cell-based; conditions: MDA-MB-231, 72 h
[7] = tested on: MCF7; experiment: Antiproliferative activity against human MCF7 cells after 2 days by MTT assay; assay type: functional, cell-based; conditions: MCF7, 48 h
[8] = tested on: HeLa; experiment: Antiproliferative activity against human HeLa cells after 2 days by MTT assay; assay type: functional, cell-based; conditions: 48 h
[9] = tested on: A549; experiment: Antiproliferative activity against human A549 cells after 2 days by MTT assay; assay type: functional, cell-based; conditions: A549, 48 h
[10] = tested on: HMEC-1; experiment: Antiproliferative activity against HMEC1 cells after 2 days by MTT assay; assay type: functional, cell-based; conditions: Homo sapiens, HMEC-1, 48 h
[11] = tested on: A549; experiment: Cell cycle arrest in human A549 cells assessed as accumulation at sub-G0 phase at 160 nM after 20 hrs by propidium iodide staining based flow cytometry (reference value: 6.6 +/- 0.1%); assay type: functional
[12] = tested on: A549; experiment: Cell cycle arrest in human A549 cells assessed as accumulation at G0/G1 phase at 160 nM after 20 hrs by propidium iodide staining based flow cytometry (reference value: 66 +/- 1%); assay type: functional
[13] = tested on: A549; experiment: Cell cycle arrest in human A549 cells assessed as accumulation at G2/M phase at 60 nM after 20 hrs by propidium iodide staining based flow cytometry (reference value: 11 +/- 1%); assay type: functional
[14] = tested on: A549; experiment: Disruption of microtubule network in human A549 cells assessed as appearance of compressed and fragmented nuclei at 230 nM after 16 hrs by Hoechst staining based immunofluorescence assay; assay type: cell-based
[15] = tested on: A549; experiment: Induction of apoptosis in human A549 cells after 24 hrs by Annexin V-FITC/propidium iodide staining based flow cytometry; assay type: functional, cell-based
[16] = tested on: A549; experiment: Induction of apoptosis in human A549 cells at 100 nM after 24 hrs by Annexin V-FITC/propidium iodide staining based flow cytometry (reference value: 28%); assay type: functional
[17] = species on record: Bos taurus; experiment: Inhibition of calf brain tubulin polymerization after 60 mins by turbidimetric method
[18] = tested on: A549; experiment: Induction of apoptosis in human A549 cells at 10 nM after 24 hrs by Annexin V-FITC/propidium iodide staining based flow cytometry (reference value: 28%); assay type: functional
[19] = tested on: A549; experiment: Cell cycle arrest in human A549 cells assessed as accumulation at sub-G0 phase at 60 nM after 20 hrs by propidium iodide staining based flow cytometry (reference value: 6.6 +/- 0.1%); assay type: functional
[20] = tested on: A549; experiment: Disruption of microtubule network in human A549 cells assessed as appearance of tubulin aggregates at 230 nM after 16 hrs by Hoechst staining based immunofluorescence assay; assay type: cell-based
[21] = tested on: A549; experiment: Cell cycle arrest in human A549 cells assessed as accumulation at G0/G1 phase at 60 nM after 20 hrs by propidium iodide staining based flow cytometry (reference value: 66 +/- 1%); assay type: functional
[22] = tested on: HMEC-1; experiment: Vascular disruptive activity in HMEC1 cells assessed as disruption of preformed tubular networks after 4 hrs by matrigel based assay; assay type: functional, cell-based; conditions: Homo sapiens
[23] = tested on: A549; experiment: Cell cycle arrest in human A549 cells assessed as accumulation at S phase at 60 nM after 20 hrs by propidium iodide staining based flow cytometry (reference value: 16 +/- 1%); assay type: functional
[24] = tested on: A549; experiment: Cell cycle arrest in human A549 cells assessed as accumulation at S phase at 75 nM after 20 hrs by propidium iodide staining based flow cytometry (reference value: 16 +/- 1%); assay type: functional
[25] = tested on: A549; experiment: Disruption of microtubule network in human A549 cells assessed as appearance of tubulin aggregates at 300 nM after 16 hrs by Hoechst staining based immunofluorescence assay; assay type: cell-based
[26] = tested on: A549; experiment: Cell cycle arrest in human A549 cells assessed as accumulation at G2/M phase at 75 nM after 20 hrs by propidium iodide staining based flow cytometry (reference value: 11 +/- 1%); assay type: functional
[27] = tested on: A549; experiment: Cell cycle arrest in human A549 cells assessed as accumulation at G0/G1 phase at 75 nM after 20 hrs by propidium iodide staining based flow cytometry (reference value: 66 +/- 1%); assay type: functional
[28] = tested on: A549; experiment: Cell cycle arrest in human A549 cells assessed as accumulation at sub-G0 phase at 75 nM after 20 hrs by propidium iodide staining based flow cytometry (reference value: 6.6 +/- 0.1%); assay type: functional
[29] = tested on: A549; experiment: Disruption of microtubule network in human A549 cells assessed as appearance of compressed and fragmented nuclei at 300 nM after 16 hrs by Hoechst staining based immunofluorescence assay; assay type: cell-based
[30] = tested on: A549; experiment: Cell cycle arrest in human A549 cells assessed as accumulation at sub-G0 phase at 90 nM after 20 hrs by propidium iodide staining based flow cytometry (reference value: 6.6 +/- 0.1%); assay type: functional
[31] = tested on: A549; experiment: Cell cycle arrest in human A549 cells assessed as accumulation at S phase at 90 nM after 20 hrs by propidium iodide staining based flow cytometry (reference value: 16 +/- 1%); assay type: functional
[32] = tested on: A549; experiment: Cell cycle arrest in human A549 cells assessed as accumulation at G0/G1 phase at 90 nM after 20 hrs by propidium iodide staining based flow cytometry (reference value: 66 +/- 1%); assay type: functional
[33] = tested on: A549; experiment: Cell cycle arrest in human A549 cells assessed as accumulation at G2/M phase at 90 nM after 20 hrs by propidium iodide staining based flow cytometry (reference value: 11 +/- 1%); assay type: functional
[34] = tested on: A549; experiment: Cell cycle arrest in human A549 cells assessed as accumulation at G2/M phase at 40 nM after 20 hrs by propidium iodide staining based flow cytometry (reference value: 11 +/- 1%); assay type: functional
[35] = tested on: A549; experiment: Disruption of microtubule network in human A549 cells assessed as appearance of tubulin aggregates at 150 nM after 16 hrs by Hoechst staining based immunofluorescence assay; assay type: cell-based
[36] = tested on: A549; experiment: Disruption of microtubule network in human A549 cells assessed as appearance of compressed and fragmented nuclei at 150 nM after 16 hrs by Hoechst staining based immunofluorescence assay; assay type: cell-based
[37] = tested on: A549; experiment: Cell cycle arrest in human A549 cells assessed as accumulation at sub-G0 phase at 40 nM after 20 hrs by propidium iodide staining based flow cytometry (reference value: 6.6 +/- 0.1%); assay type: functional
[38] = tested on: A549; experiment: Cell cycle arrest in human A549 cells assessed as accumulation at G0/G1 phase at 40 nM after 20 hrs by propidium iodide staining based flow cytometry (reference value: 66 +/- 1%); assay type: functional
[39] = tested on: A549; experiment: Cell cycle arrest in human A549 cells assessed as accumulation at S phase at 40 nM after 20 hrs by propidium iodide staining based flow cytometry (reference value: 16 +/- 1%); assay type: functional
[40] = Selectivity index, ratio of IC50 for antiproliferative activity against HEK293 cells to IC50 for antiproliferative activity against human MCF7 cells; assay type: toxicity, cell-based; conditions: HEK293 cells versus MCF7 cells, read-out: Ratio IC50
[41] = tested on: A549; experiment: Disruption of microtubule network in human A549 cells assessed as appearance of compressed and fragmented nuclei at 200 nM after 16 hrs by Hoechst staining based immunofluorescence assay; assay type: cell-based
[42] = Selectivity index, ratio of IC50 for antiproliferative activity against HEK293 cells to IC50 for antiproliferative activity against human HT-29 cells; assay type: toxicity, cell-based; conditions: HEK293 cells versus HT-29 cells, read-out: Ratio IC50
[43] = Selectivity index, ratio of IC50 for antiproliferative activity against HEK293 cells to IC50 for antiproliferative activity against human HeLa cells; assay type: toxicity, cell-based; conditions: HEK293 cells versus HeLa cells, read-out: Ratio IC50
[44] = tested on: A549; experiment: Cell cycle arrest in human A549 cells assessed as accumulation at S phase at 50 nM after 20 hrs by propidium iodide staining based flow cytometry (reference value: 16 +/- 1%); assay type: functional
[45] = tested on: A549; experiment: Disruption of microtubule network in human A549 cells assessed as appearance of tubulin aggregates at 200 nM after 16 hrs by Hoechst staining based immunofluorescence assay; assay type: cell-based
[46] = Selectivity index, ratio of IC50 for antiproliferative activity against HEK293 cells to IC50 for antiproliferative activity against human HL60 cells; assay type: toxicity, cell-based; conditions: HEK293 cells versus HL60 cells, read-out: Ratio IC50
[47] = tested on: A549; experiment: Cell cycle arrest in human A549 cells assessed as accumulation at G0/G1 phase at 50 nM after 20 hrs by propidium iodide staining based flow cytometry (reference value: 66 +/- 1%); assay type: functional
[48] = tested on: A549; experiment: Cell cycle arrest in human A549 cells assessed as accumulation at sub-G0 phase at 50 nM after 20 hrs by propidium iodide staining based flow cytometry (reference value: 6.6 +/- 0.1%); assay type: functional
[49] = tested on: A549; experiment: Cell cycle arrest in human A549 cells assessed as accumulation at G2/M phase at 50 nM after 20 hrs by propidium iodide staining based flow cytometry (reference value: 11 +/- 1%); assay type: functional
[50] = tested on: A549; experiment: Cell cycle arrest in human A549 cells assessed as accumulation at G2/M phase at 400 nM after 20 hrs by propidium iodide staining based flow cytometry (reference value: 11 +/- 1%); assay type: functional
[51] = tested on: A549; experiment: Cell cycle arrest in human A549 cells assessed as accumulation at G0/G1 phase at 400 nM after 20 hrs by propidium iodide staining based flow cytometry (reference value: 66 +/- 1%); assay type: functional
[52] = tested on: A549; experiment: Cell cycle arrest in human A549 cells assessed as accumulation at S phase at 400 nM after 20 hrs by propidium iodide staining based flow cytometry (reference value: 16 +/- 1%); assay type: functional
[53] = tested on: A549; experiment: Cell cycle arrest in human A549 cells assessed as accumulation at sub-G0 phase at 400 nM after 20 hrs by propidium iodide staining based flow cytometry (reference value: 6.6 +/- 0.1%); assay type: functional

IC50 [2] [nM]	IC50 [4] [nM]	IC50 [6] [nM]	IC50 [7] [nM]	IC50 [8] [nM]	IC50 [9] [nM]	inhibition [17]	Structure (SMILES)	IC50 [3] [nM]	IC50 [10] [nM]	Activity [15]	Activity [16] [%]	Activity [18] [%]	also measured
4	110	71	62	17	320	–	COc1ccc(/C=C\c2cc(OC)c(OC)c(OC)c2)cc1NC(=O)Oc1ccccc1F	65	180	–	–	–	Activity [1]: 13%; Activity [5]: 39%; Activity [11]: 17%; Activity [12]: 31%
60	10.6	14.8	7	2.7	150	Active	COc1ccc(/C=C\c2cc(OC)c(OC)c(OC)c2)cc1NC(=O)Oc1cccc(F)c1	13.2	20	Dose-dependent effect	67	26	Activity [24]: 10%; Activity [25]: Active; Activity [26]: 43%; Activity [27]: 29%; Activity [28]: 19%; Activity [29]: Active
3	7.5	13.4	18.9	2.6	180	–	COc1ccc(/C=C\c2cc(OC)c(OC)c(OC)c2)cc1NC(=O)Oc1ccccc1Br	8	22	–	–	–	Activity [30]: 17%; Activity [31]: 10%; Activity [32]: 29%; Activity [33]: 44%
4	2.9	11.8	9.8	4.8	77	–	COc1ccc(/C=C\c2cc(OC)c(OC)c(OC)c2)cc1NC(=O)Oc1ccccc1	3.3	12	Dose-dependent effect	91	45	Activity [34]: 44%; Activity [35]: Active; Activity [36]: Active; Activity [37]: 20%; Activity [38]: 21%; Activity [39]: 15%
13.5	9.2	15.1	4.4	4.79	100	Active	COc1ccc(/C=C\c2cc(OC)c(OC)c(OC)c2)cc1NC(=O)Oc1cccc(Cl)c1	14.5	9	Dose-dependent effect	93	29	selectivity ratio [40]: 2 to 11; Activity [41]: Active; selectivity ratio [42]: 2 to 11; selectivity ratio [43]: 2 to 11; Activity [44]: 10%; Activity [45]: Active; selectivity ratio [46]: 2 to 11; Activity [47]: 30%; Activity [48]: 16%; Activity [49]: 44%
770	31	9.39	82	24	800	–	COc1ccc(/C=C\c2cc(OC)c(OC)c(OC)c2)cc1NC(=O)Oc1ccc(Cl)cc1	142	76	–	–	–	Activity [50]: 41%; Activity [51]: 21%; Activity [52]: 18%; Activity [53]: 20%

Structure (SMILES)	IC50 [2] [nM]	IC50 [4] [nM]	IC50 [6] [nM]	IC50 [7] [nM]	IC50 [8] [nM]	IC50 [9] [nM]	inhibition [17]	IC50 [3] [nM]	IC50 [10] [nM]	Activity [15]	Activity [16] [%]	Activity [18] [%]	also measured
COc1ccc(/C=C\c2cc(OC)c(OC)c(OC)c2)cc1N	4.5	22	12	8	2.6	117	Active	7.1	12	Dose-dependent effect	62	56	Activity [13]: 41%; Activity [14]: Active; Activity [19]: 14%; Activity [20]: Active; Activity [21]: 21%; Activity [22]: Dose-dependent effect; Activity [23]: 24%
